Here are results for 24 molecules from patent publication US9796741B2 (Achillion Pharmaceuticals, Inc., priority 2014, dated 2017).

Some results are limits rather than exact numbers.

Human factor D, sequence (P00746 26-253): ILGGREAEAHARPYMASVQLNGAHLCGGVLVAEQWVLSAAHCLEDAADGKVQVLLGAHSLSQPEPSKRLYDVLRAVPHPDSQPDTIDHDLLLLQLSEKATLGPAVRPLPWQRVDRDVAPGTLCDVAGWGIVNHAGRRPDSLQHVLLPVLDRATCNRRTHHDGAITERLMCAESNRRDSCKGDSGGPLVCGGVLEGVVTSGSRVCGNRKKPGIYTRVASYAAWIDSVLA

The first assay has as its target Human factor D (Homo sapiens (Human), UniProt P00746). The assay can be described thus: Human Factor D Assay. The class given is biochemical.
Conditions: not given
The procedure, abridged: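 Serum-purified factor D (80 nM final) preincubated 5 min at room temperature with compound in 50 mM Tris, 1M NaCl, pH 7.5. Z-L-Lys-SBzl and DTNB added at 100 μM each; OD405 followed kinetically over 30 min. IC50 by non-linear regression of % inhibition.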
One may read the IC50 as the concentration that inhibits the measured activity by half. Low readings indicate greater potency, high ones weaker potency. Turning to `NC(=O)c1nn(CC(=O)N2C[C@H](F)C[C@H]2C(=O)Nc2ncc(Br)cn2)c2ccc(-c3ccnnc3)cc12` [Compound 109, 1-(2-((2S,4R)-2-(5-bromopyrimidin-2-ylcarbamoyl)-4-fluoropyrrolidin-1-yl)-2-oxoethyl)-5-(pyridazin-4-yl)-1H-indazole-3-carboxamide], the IC50 lay within 1 to 10 µM.

Still in this assay, the particulars now being: human factor D 80 nM, substrate Z-L-Lys-SBzl, DTNB.
On to `NC(=O)c1nn(CC(=O)N2C[C@H](F)C[C@H]2C(=O)Nc2cccc(Cl)c2C(F)(F)F)c2ccc(-c3ccnnc3)cc12` [Compound 93, 1-(2-((2S,4R)-2-(3-chloro-2-(trifluoromethyl)phenylcarbamoyl)-4-fluoropyrrolidin-1-yl)-2-oxoethyl)-5-(pyridazin-4-yl)-1H-indazole-3-carboxamide], for which the IC50 is above 10 µM.
Same read-out and setting: for `NC(=O)c1nn(CC(=O)N2C[C@H](F)C[C@H]2C(=O)Nc2c[nH]nc2-c2ccc(Cl)cc2Cl)c2ccc(-c3ccnnc3)cc12` [Compound 94, 1-(2-((2S,4R)-2-(3-(2,4-dichlorophenyl)-1H-pyrazol-4-ylcarbamoyl)-4-fluoropyrrolidin-1-yl)-2-oxoethyl)-5-(pyridazin-4-yl)-1H-indazole-3-carboxamide] the value was above 10 µM; for `CC(=O)c1cn(CC(=O)N2C[C@H](F)C[C@H]2C(=O)Nc2cccc(Cl)c2-n2cncn2)c2ccc(-c3ccnnc3)cc12` [Compound 95, (2S,4R)-1-(2-(3-acetyl-5-(pyridazin-4-yl)-1H-indol-1-yl)acetyl)-N-(3-chloro-2-(1H-1,2,4-triazol-1-yl)phenyl)-4-fluoropyrrolidine-2-carboxamide], above 10 µM.
Same read-out and setting: in the case of `NC(=O)c1nn(CC(=O)N2C[C@H](F)C[C@H]2C(=O)Nc2cccc(Cl)c2-n2cncn2)c2ccc(-c3ccnnc3)cc12` [Compound 96, 1-(2-((2S,4R)-2-(3-chloro-2-(1H-1,2,4-triazol-1-yl)phenylcarbamoyl)-4-fluoropyrrolidin-1-yl)-2-oxoethyl)-5-(pyridazin-4-yl)-1H-indazole-3-carboxamide] it was above 10 µM.
Same read-out and setting: in the case of `CC(=O)c1cn(CC(=O)N2C[C@H](F)C[C@H]2C(=O)Nc2cc(C)nc3nc(C(F)(F)F)nn23)c2ccc(-c3ccnnc3)cc12` [Compound 97, (2S,4R)-1-(2-(3-acetyl-5-(pyridazin-4-yl)-1H-indol-1-yl)acetyl)-4-fluoro-N-(5-methyl-2-(trifluoromethyl)-[1,2,4]triazolo[1,5-a]pyrimidin-7-yl)pyrrolidine-2-carboxamide] it was above 10 µM; in that of `Cn1cnnc1-c1ccccc1NC(=O)[C@@H]1C[C@@H](F)CN1C(=O)Cn1nc(C(N)=O)c2cc(-c3ccnnc3)ccc21` [Compound 98, 1-(2-((2S,4R)-4-fluoro-2-(2-(4-methyl-4H-1,2,4-triazol-3-yl)phenylcarbamoyl)pyrrolidin-1-yl)-2-oxoethyl)-5-(pyridazin-4-yl)-1H-indazole-3-carboxamide], above 10 µM.
`CC(=O)c1cn(CC(=O)N2C[C@H](F)C[C@H]2C(=O)Nc2nc(-c3ccccc3Cl)ns2)c2ccc(-c3ccnnc3)cc12` [Compound 99, (2S,4R)-1-(2-(3-acetyl-5-(pyridazin-4-yl)-1H-indol-1-yl)acetyl)-N-(3-(2-chlorophenyl)-1,2,4-thiadiazol-5-yl)-4-fluoropyrrolidine-2-carboxamide] returned an IC50 below 1 µM.
On the same count and under the same terms, in the case of `CC(=O)c1cn(CC(=O)N2C[C@H](F)C[C@H]2C(=O)Nc2cccc(Br)n2)c2ccc(-c3ccccc3Cl)cc12` [Compound 100, (2S,4R)-1-(2-(3-acetyl-5-(2-chlorophenyl)-1H-indol-1-yl)acetyl)-N-(6-bromopyridin-2-yl)-4-fluoropyrrolidine-2-carboxamide] it was below 1 µM; in that of `Cc1ncc(-c2ccc3c(c2)c(C(N)=O)nn3CC(=O)N2C[C@H](F)C[C@H]2C(=O)Nc2cccc(Br)n2)cn1` [Compound 101, 1-(2-((2S,4R)-2-(6-bromopyridin-2-ylcarbamoyl)-4-fluoropyrrolidin-1-yl)-2-oxoethyl)-5-(2-methylpyrimidin-5-yl)-1H-indazole-3-carboxamide], below 1 µM; in that of `CC(=O)c1cn(CC(=O)N2C[C@H](F)C[C@H]2C(=O)Nc2cccc(-c3ccccc3Cl)c2F)c2ccc(-c3cnc(C)nc3)cc12` [Compound 102, (2S,4R)-1-(2-(3-acetyl-5-(2-methylpyrimidin-5-yl)-1H-indol-1-yl)acetyl)-N-(2′-chloro-2-fluorobiphenyl-3-yl)-4-fluoropyrrolidine-2-carboxamide], below 1 µM.
On the same count and under the same terms, for `Cc1ncc(-c2ccc3c(c2)c(C(N)=O)nn3CC(=O)N2C[C@H](F)C[C@H]2C(=O)Nc2cccc(-c3ccccc3Cl)c2F)cn1` [Compound 103, 1-(2-((2S,4R)-2-(2′-chloro-2-fluorobiphenyl-3-ylcarbamoyl)-4-fluoropyrrolidin-1-yl)-2-oxoethyl)-5-(2-methylpyrimidin-5-yl)-1H-indazole-3-carboxamide] the value was below 1 µM; for `NC(=O)c1nn(CC(=O)N2C[C@H](F)C[C@H]2C(=O)Nc2cccc3c2CN(c2ccccn2)C3)c2ccc(-c3ccnnc3)cc12` [Compound 104, 1-(2-((2S,4R)-4-fluoro-2-(2-(pyridin-2-yl)isoindolin-4-ylcarbamoyl)pyrrolidin-1-yl)-2-oxoethyl)-5-(pyridazin-4-yl)-1H-indazole-3-carboxamide], above 10 µM.
Same read-out and setting: for `CC(=O)c1cn(CC(=O)N2C[C@H](F)C[C@H]2C(=O)Nc2cccc3c2CN(c2ccccn2)C3)c2ccc(-c3ccnnc3)cc12` [Compound 105, (2S,4R)-1-(2-(3-acetyl-5-(pyridazin-4-yl)-1H-indol-1-yl)acetyl)-4-fluoro-N-(2-(pyridin-2-yl)isoindolin-4-yl)pyrrolidine-2-carboxamide] the value was above 10 µM; for `CC(=O)c1cn(CC(=O)N2C[C@H](F)C[C@H]2C(=O)NC2CCCc3nc(-c4ccc(F)cc4)sc32)c2ccc(-c3ccnnc3)cc12` (stereo partly drawn) [Compound 106, (2S,4R)-1-(2-(3-acetyl-5-(pyridazin-4-yl)-1H-indol-1-yl)acetyl)-4-fluoro-N-(2-(4-fluorophenyl)-4,5,6,7-tetrahydrobenzo[d]thiazol-7-yl) pyrrolidine-2-carboxamide], above 10 µM; for `NC(=O)c1nn(CC(=O)N2C[C@H](F)C[C@H]2C(=O)NC2CCCc3nc(-c4ccc(F)cc4)sc32)c2ccc(-c3ccnnc3)cc12` (stereo partly drawn) [Compound 107, 1-(2-((2S,4R)-4-fluoro-2-(2-(4-fluorophenyl)-4,5,6,7-tetrahydrobenzo[d]thiazol-7-ylcarbamoyl)pyrrolidin-1-yl)-2-oxoethyl)-5-(pyridazin-4-yl)-1H-indazole-3-carboxamide], above 10 µM.
`CC(=O)c1cn(CC(=O)N2C[C@H](F)C[C@H]2C(=O)Nc2ccc3ccccc3c2)c2ccc(-c3ccnnc3)cc12` [Compound 110, (2S,4R)-1-(2-(3-acetyl-5-(pyridazin-4-yl)-1H-indol-1-yl)acetyl)-4-fluoro-N-(naphthalen-2-yl)pyrrolidine-2-carboxamide] came in with an IC50 above 10 µM.
Consider `NC(=O)c1nn(CC(=O)N2C[C@H](F)C[C@H]2C(=O)Nc2noc3cc(C(F)(F)F)ccc23)c2ccc(-c3ccnnc3)cc12` [Compound 112, 1-(2-((2S,4R)-4-fluoro-2-(6-(trifluoromethyl)benzo[d]isoxazol-3-ylcarbamoyl)pyrrolidin-1-yl)-2-oxoethyl)-5-(pyridazin-4-yl)-1H-indazole-3-carboxamide], for which the IC50 is above 10 µM.
Still for that read-out and setting: for `Cc1cc(NC(=O)[C@@H]2C[C@@H](F)CN2C(=O)Cn2nc(C(N)=O)c3cc(-c4ccnnc4)ccc32)n2nc(C(F)(F)F)nc2n1` [Compound 113, 1-(2-((2S,4R)-4-fluoro-2-(5-methyl-2-(trifluoromethyl)-[1,2,4]triazolo[1,5-a]pyrimidin-7-ylcarbamoyl)pyrrolidin-1-yl)-2-oxoethyl)-5-(pyridazin-4-yl)-1H-indazole-3-carboxamide] the value was above 10 µM.
Molecule `NC(=O)c1nn(CC(=O)N2C[C@H](F)C[C@H]2C(=O)Nc2nnc(-c3ccccc3Cl)s2)c2ccc(-c3ccnnc3)cc12` [Compound 115, 1-(2-((2S,4R)-2-(5-(2-chlorophenyl)-1,3,4-thiadiazol-2-ylcarbamoyl)-4-fluoropyrrolidin-1-yl)-2-oxoethyl)-5-(pyridazin-4-yl)-1H-indazole-3-carboxamide] yielded an IC50 above 10 µM.
The same measure, in the same setting: for `CC(=O)c1cn(CC(=O)N2C[C@H](F)C[C@H]2C(=O)Nc2nnc(-c3ccc(Cl)c(Cl)c3)s2)c2ccc(-c3ccnnc3)cc12` [Compound 117, (2S,4R)-1-(2-(3-acetyl-5-(pyridazin-4-yl)-1H-indol-1-yl)acetyl)-N-(5-(3,4-dichlorophenyl)-1,3,4-thiadiazol-2-yl)-4-fluoropyrrolidine-2-carboxamide] the value was above 10 µM.
On the same count and under the same terms, for `CC(=O)Nc1ncc(-c2ccc3c(c2)c(C(C)=O)cn3CC(=O)N2C[C@H](F)C[C@H]2C(=O)Nc2cccc(Br)n2)cn1` [Compound 118, (2S,4R)-1-(2-(5-(2-acetamidopyrimidin-5-yl)-3-acetyl-1H-indol-1-yl)acetyl)-N-(6-bromopyridin-2-yl)-4-fluoropyrrolidine-2-carboxamide] the value was below 1 µM; for `CC(=O)c1cn(CC(=O)N2C[C@H](F)C[C@H]2C(=O)Nc2cccc(Br)n2)c2ccc(-c3cccc(Cl)c3)cc12` [Compound 119, (2S,4R)-1-(2-(3-acetyl-5-(3-chlorophenyl)-1H-indol-1-yl)acetyl)-N-(6-bromopyridin-2-yl)-4-fluoropyrrolidine-2-carboxamide], below 1 µM; for `CC(=O)c1cn(CC(=O)N2C[C@H](F)C[C@H]2C(=O)Nc2cccc(Br)n2)c2ccc(-c3ccc(C)nc3)cc12` [Compound 120, (2S,4R)-1-(2-(3-acetyl-5-(6-methylpyridin-3-yl)-1H-indol-1-yl)acetyl)-N-(6-bromopyridin-2-yl)-4-fluoropyrrolidine-2-carboxamide], below 1 µM.
